According to the NIST ThermoML archive (doi:10.1016/j.jct.2017.08.004):
± gives the expanded uncertainty stated by the source.

conditions: 15 K; 101.33 kPa; Crystal; relaxation calorimetry

Structure (SMILES)	molar entropy [J/K/mol]
OC[C@@H](O)C(O)[C@H](O)CO [D-arabitol]	1.012 ± 0.093
OC[C@@H](O)[C@@H](O)[C@H](O)[C@H](O)CO [D-mannitol]	1.202 ± 0.11
OC[C@H](O)C(O)[C@@H](O)CO [L-(-)-arabitol]	1.038 ± 0.095

Second part, the compound after the results:

molar entropy [J/K/mol]	Structure (SMILES)
1.619 ± 0.15	O[C@H]1[C@H](O)[C@@H](O)[C@H](O)[C@@H](O)[C@H]1O [cis-1,2,3,5-trans-4,6-cyclohexanehexol]
1.077 ± 0.099	OC[C@@H](O)[C@@H](O)CO [meso-1,2,3,4-butanetetrol]

same assay, conditions: 20 K; 101.33 kPa; Crystal; relaxation calorimetry

Structure (SMILES)	molar entropy [J/K/mol]
OC[C@@H](O)C(O)[C@H](O)CO [D-arabitol]	2.431 ± 0.22
OC[C@@H](O)[C@@H](O)[C@H](O)[C@H](O)CO [D-mannitol]	2.796 ± 0.26
OC[C@H](O)C(O)[C@@H](O)CO [L-(-)-arabitol]	2.479 ± 0.23

Second part, the compound after the results:

molar entropy [J/K/mol]	Structure (SMILES)
3.401 ± 0.31	O[C@H]1[C@H](O)[C@@H](O)[C@H](O)[C@@H](O)[C@H]1O [cis-1,2,3,5-trans-4,6-cyclohexanehexol]
2.466 ± 0.23	OC[C@@H](O)[C@@H](O)CO [meso-1,2,3,4-butanetetrol]

same assay, conditions: 25 K; 101.33 kPa; Crystal; relaxation calorimetry

Structure (SMILES)	molar entropy [J/K/mol]
OC[C@@H](O)C(O)[C@H](O)CO [D-arabitol]	4.457 ± 0.41
OC[C@@H](O)[C@@H](O)[C@H](O)[C@H](O)CO [D-mannitol]	5.087 ± 0.47
OC[C@H](O)C(O)[C@@H](O)CO [L-(-)-arabitol]	4.532 ± 0.42

Now from value to compound:

molar entropy [J/K/mol]	Structure (SMILES)
5.648 ± 0.52	O[C@H]1[C@H](O)[C@@H](O)[C@H](O)[C@@H](O)[C@H]1O [cis-1,2,3,5-trans-4,6-cyclohexanehexol]
4.373 ± 0.4	OC[C@@H](O)[C@@H](O)CO [meso-1,2,3,4-butanetetrol]

same assay, conditions: 30 K; 101.33 kPa; Crystal; relaxation calorimetry

Structure (SMILES)	molar entropy [J/K/mol]
OC[C@@H](O)C(O)[C@H](O)CO [D-arabitol]	6.97 ± 0.64
OC[C@@H](O)[C@@H](O)[C@H](O)[C@H](O)CO [D-mannitol]	7.955 ± 0.73
OC[C@H](O)C(O)[C@@H](O)CO [L-(-)-arabitol]	7.074 ± 0.65

Next, values leading:

molar entropy [J/K/mol]	Structure (SMILES)
8.19 ± 0.75	O[C@H]1[C@H](O)[C@@H](O)[C@H](O)[C@@H](O)[C@H]1O [cis-1,2,3,5-trans-4,6-cyclohexanehexol]
6.67 ± 0.61	OC[C@@H](O)[C@@H](O)CO [meso-1,2,3,4-butanetetrol]

same assay, conditions: 35 K; 101.33 kPa; Crystal; relaxation calorimetry

Structure (SMILES)	molar entropy [J/K/mol]
OC[C@@H](O)C(O)[C@H](O)CO [D-arabitol]	9.854 ± 0.91
OC[C@@H](O)[C@@H](O)[C@H](O)[C@H](O)CO [D-mannitol]	11.26 ± 1
OC[C@H](O)C(O)[C@@H](O)CO [L-(-)-arabitol]	9.99 ± 0.92

Results, then the compound that gave them:

molar entropy [J/K/mol]	Structure (SMILES)
10.93 ± 1	O[C@H]1[C@H](O)[C@@H](O)[C@H](O)[C@@H](O)[C@H]1O [cis-1,2,3,5-trans-4,6-cyclohexanehexol]
9.244 ± 0.85	OC[C@@H](O)[C@@H](O)CO [meso-1,2,3,4-butanetetrol]

same assay, conditions: 40 K; 101.33 kPa; Crystal; relaxation calorimetry

Structure (SMILES)	molar entropy [J/K/mol]
OC[C@@H](O)C(O)[C@H](O)CO [D-arabitol]	13.02 ± 1.2
OC[C@@H](O)[C@@H](O)[C@H](O)[C@H](O)CO [D-mannitol]	14.89 ± 1.4
OC[C@H](O)C(O)[C@@H](O)CO [L-(-)-arabitol]	13.19 ± 1.2

The next lines start with the values.

molar entropy [J/K/mol]	Structure (SMILES)
13.82 ± 1.3	O[C@H]1[C@H](O)[C@@H](O)[C@H](O)[C@@H](O)[C@H]1O [cis-1,2,3,5-trans-4,6-cyclohexanehexol]
12.02 ± 1.1	OC[C@@H](O)[C@@H](O)CO [meso-1,2,3,4-butanetetrol]

same assay, conditions: 45 K; 101.33 kPa; Crystal; relaxation calorimetry

Structure (SMILES)	molar entropy [J/K/mol]
OC[C@@H](O)C(O)[C@H](O)CO [D-arabitol]	16.41 ± 1.5
OC[C@@H](O)[C@@H](O)[C@H](O)[C@H](O)CO [D-mannitol]	18.76 ± 1.7
OC[C@H](O)C(O)[C@@H](O)CO [L-(-)-arabitol]	16.61 ± 1.5

Next, values leading:

molar entropy [J/K/mol]	Structure (SMILES)
16.84 ± 1.5	O[C@H]1[C@H](O)[C@@H](O)[C@H](O)[C@@H](O)[C@H]1O [cis-1,2,3,5-trans-4,6-cyclohexanehexol]
14.94 ± 1.4	OC[C@@H](O)[C@@H](O)CO [meso-1,2,3,4-butanetetrol]

same assay, conditions: 50 K; 101.33 kPa; Crystal; relaxation calorimetry

Structure (SMILES)	molar entropy [J/K/mol]
OC[C@@H](O)C(O)[C@H](O)CO [D-arabitol]	19.95 ± 1.8
OC[C@@H](O)[C@@H](O)[C@H](O)[C@H](O)CO [D-mannitol]	22.8 ± 2.1
OC[C@H](O)C(O)[C@@H](O)CO [L-(-)-arabitol]	20.19 ± 1.9

Continued, values first:

molar entropy [J/K/mol]	Structure (SMILES)
19.96 ± 1.8	O[C@H]1[C@H](O)[C@@H](O)[C@H](O)[C@@H](O)[C@H]1O [cis-1,2,3,5-trans-4,6-cyclohexanehexol]
17.96 ± 1.6	OC[C@@H](O)[C@@H](O)CO [meso-1,2,3,4-butanetetrol]

same assay, conditions: 55 K; 101.33 kPa; Crystal; relaxation calorimetry

Structure (SMILES)	molar entropy [J/K/mol]
OC[C@@H](O)C(O)[C@H](O)CO [D-arabitol]	23.61 ± 2.2
OC[C@@H](O)[C@@H](O)[C@H](O)[C@H](O)CO [D-mannitol]	26.97 ± 2.5
OC[C@H](O)C(O)[C@@H](O)CO [L-(-)-arabitol]	23.88 ± 2.2

Now from value to compound:

molar entropy [J/K/mol]	Structure (SMILES)
23.14 ± 2.1	O[C@H]1[C@H](O)[C@@H](O)[C@H](O)[C@@H](O)[C@H]1O [cis-1,2,3,5-trans-4,6-cyclohexanehexol]
21.05 ± 1.9	OC[C@@H](O)[C@@H](O)CO [meso-1,2,3,4-butanetetrol]

same assay, conditions: 60 K; 101.33 kPa; Crystal; relaxation calorimetry

Structure (SMILES)	molar entropy [J/K/mol]
OC[C@@H](O)C(O)[C@H](O)CO [D-arabitol]	27.36 ± 2.5
OC[C@@H](O)[C@@H](O)[C@H](O)[C@H](O)CO [D-mannitol]	31.23 ± 2.9
OC[C@H](O)C(O)[C@@H](O)CO [L-(-)-arabitol]	27.65 ± 2.5

More lines, now with the values ahead:

molar entropy [J/K/mol]	Structure (SMILES)
26.38 ± 2.4	O[C@H]1[C@H](O)[C@@H](O)[C@H](O)[C@@H](O)[C@H]1O [cis-1,2,3,5-trans-4,6-cyclohexanehexol]
24.19 ± 2.2	OC[C@@H](O)[C@@H](O)CO [meso-1,2,3,4-butanetetrol]
